According to patent US8415299B2, “Methods for improved avian performance” (priority 2004, dated 2013):
Where two headings read alike, the source gives them in different places.

System: Cobb broiler breeder hens and roosters
Type: in vivo
Excerpt: Molting Cobb Broiler Breeder Hens and Roosters with Dietary Thyroxine.

N[C@@H](Cc1cc(I)c(Oc2cc(I)c(O)c(I)c2)c(I)c1)C(=O)O [L-thyroxine, 3,5,3′,5′-tetraiodothyronine]
Tolerance in roosters (25 or 40 mg/kg diet, roosters began to stroke blood from the nostrils): males were unable to tolerate these levels of L-thyroxine | # Eggs per pen (25 ppm feed from 22-Sep, pen 50, 1-Nov): 0 | # Eggs per pen (25 ppm feed from 22-Sep, pen 50, 1-Oct): 3 | # Eggs per pen (25 ppm feed from 22-Sep, pen 50, 2-Nov): 0 | # Eggs per pen (25 ppm feed from 22-Sep, pen 50, 2-Oct): 1 | # Eggs per pen (25 ppm feed from 22-Sep, pen 50, 3-Nov): 0 | # Eggs per pen (25 ppm feed from 22-Sep, pen 50, 3-Oct): 0 | # Eggs per pen (25 ppm feed from 22-Sep, pen 50, 4-Nov): 0 | # Eggs per pen (25 ppm feed from 22-Sep, pen 50, 4-Oct): 1 | # Eggs per pen (25 ppm feed from 22-Sep, pen 50, 5-Oct): 1 | # Eggs per pen (25 ppm feed from 22-Sep, pen 50, 6-Oct): 0 | # Eggs per pen (25 ppm feed from 22-Sep, pen 50, 7-Oct): 0 | # Eggs per pen (25 ppm feed from 22-Sep, pen 50, 8-Oct): 3 | # Eggs per pen (25 ppm feed from 22-Sep, pen 50, 9-Oct): 1 | # Eggs per pen (25 ppm feed from 22-Sep, pen 50, 10-Oct): 0 | # Eggs per pen (25 ppm feed from 22-Sep, pen 50, 11-Oct): 0 | # Eggs per pen (25 ppm feed from 22-Sep, pen 50, 12-Oct): 0 | # Eggs per pen (25 ppm feed from 22-Sep, pen 50, 13-Oct): 0 | # Eggs per pen (25 ppm feed from 22-Sep, pen 50, 14-Oct): 0 | # Eggs per pen (25 ppm feed from 22-Sep, pen 50, 15-Oct): 0 | # Eggs per pen (25 ppm feed from 22-Sep, pen 50, 16-Oct): 0 | # Eggs per pen (25 ppm feed from 22-Sep, pen 50, 16-Sep): 15 | # Eggs per pen (25 ppm feed from 22-Sep, pen 50, 17-Oct): 0 | # Eggs per pen (25 ppm feed from 22-Sep, pen 50, 17-Sep): 14 | # Eggs per pen (25 ppm feed from 22-Sep, pen 50, 18-Oct): 0 | # Eggs per pen (25 ppm feed from 22-Sep, pen 50, 18-Sep): 11 | # Eggs per pen (25 ppm feed from 22-Sep, pen 50, 19-Oct): 0 | # Eggs per pen (25 ppm feed from 22-Sep, pen 50, 19-Sep): 17 | # Eggs per pen (25 ppm feed from 22-Sep, pen 50, 20-Oct): 0 | # Eggs per pen (25 ppm feed from 22-Sep, pen 50, 20-Sep): 15 | # Eggs per pen (25 ppm feed from 22-Sep, pen 50, 21-Oct): 0 | # Eggs per pen (25 ppm feed from 22-Sep, pen 50, 21-Sep): 14 | # Eggs per pen (25 ppm feed from 22-Sep, pen 50, 22-Oct): 0 | # Eggs per pen (25 ppm feed from 22-Sep, pen 50, 22-Sep): 14 | # Eggs per pen (25 ppm feed from 22-Sep, pen 50, 23-Oct): 0 | # Eggs per pen (25 ppm feed from 22-Sep, pen 50, 23-Sep): 19 | # Eggs per pen (25 ppm feed from 22-Sep, pen 50, 24-Oct): 0 | # Eggs per pen (25 ppm feed from 22-Sep, pen 50, 24-Sep): 7 | # Eggs per pen (25 ppm feed from 22-Sep, pen 50, 25-Oct): 0 | # Eggs per pen (25 ppm feed from 22-Sep, pen 50, 25-Sep): 8 | # Eggs per pen (25 ppm feed from 22-Sep, pen 50, 26-Oct): 0 | # Eggs per pen (25 ppm feed from 22-Sep, pen 50, 26-Sep): 9 | # Eggs per pen (25 ppm feed from 22-Sep, pen 50, 27-Oct): 0 | # Eggs per pen (25 ppm feed from 22-Sep, pen 50, 27-Sep): 4 | # Eggs per pen (25 ppm feed from 22-Sep, pen 50, 28-Oct): 0 | # Eggs per pen (25 ppm feed from 22-Sep, pen 50, 28-Sep): 3 | # Eggs per pen (25 ppm feed from 22-Sep, pen 50, 29-Oct): 0 | # Eggs per pen (25 ppm feed from 22-Sep, pen 50, 29-Sep): 1 | # Eggs per pen (25 ppm feed from 22-Sep, pen 50, 30-Oct): 0 | # Eggs per pen (25 ppm feed from 22-Sep, pen 50, 30-Sep): 0 | # Eggs per pen (25 ppm feed from 22-Sep, pen 50, 31-Oct): 0 | # Eggs per pen (40 ppm feed from 22-Sep, pen 51, 1-Nov): 1 | # Eggs per pen (40 ppm feed from 22-Sep, pen 51, 1-Oct): 1 | # Eggs per pen (40 ppm feed from 22-Sep, pen 51, 2-Nov): 3 | # Eggs per pen (40 ppm feed from 22-Sep, pen 51, 2-Oct): 0 | # Eggs per pen (40 ppm feed from 22-Sep, pen 51, 3-Nov): 3 | # Eggs per pen (40 ppm feed from 22-Sep, pen 51, 3-Oct): 0 | # Eggs per pen (40 ppm feed from 22-Sep, pen 51, 4-Nov): 5 | # Eggs per pen (40 ppm feed from 22-Sep, pen 51, 4-Oct): 0 | # Eggs per pen (40 ppm feed from 22-Sep, pen 51, 5-Oct): 0 | # Eggs per pen (40 ppm feed from 22-Sep, pen 51, 6-Oct): 0 | # Eggs per pen (40 ppm feed from 22-Sep, pen 51, 7-Oct): 0 | # Eggs per pen (40 ppm feed from 22-Sep, pen 51, 8-Oct): 0 | # Eggs per pen (40 ppm feed from 22-Sep, pen 51, 9-Oct): 0 | # Eggs per pen (40 ppm feed from 22-Sep, pen 51, 10-Oct): 0 | # Eggs per pen (40 ppm feed from 22-Sep, pen 51, 11-Oct): 0 | # Eggs per pen (40 ppm feed from 22-Sep, pen 51, 12-Oct): 0 | # Eggs per pen (40 ppm feed from 22-Sep, pen 51, 13-Oct): 0 | # Eggs per pen (40 ppm feed from 22-Sep, pen 51, 14-Oct): 0 | # Eggs per pen (40 ppm feed from 22-Sep, pen 51, 15-Oct): 0 | # Eggs per pen (40 ppm feed from 22-Sep, pen 51, 16-Oct): 0 | # Eggs per pen (40 ppm feed from 22-Sep, pen 51, 16-Sep): 12 | # Eggs per pen (40 ppm feed from 22-Sep, pen 51, 17-Oct): 0 | # Eggs per pen (40 ppm feed from 22-Sep, pen 51, 17-Sep): 19 | # Eggs per pen (40 ppm feed from 22-Sep, pen 51, 18-Oct): 0 | # Eggs per pen (40 ppm feed from 22-Sep, pen 51, 18-Sep): 19 | # Eggs per pen (40 ppm feed from 22-Sep, pen 51, 19-Oct): 0 | # Eggs per pen (40 ppm feed from 22-Sep, pen 51, 19-Sep): 20 | # Eggs per pen (40 ppm feed from 22-Sep, pen 51, 20-Oct): 0 | # Eggs per pen (40 ppm feed from 22-Sep, pen 51, 20-Sep): 16 | # Eggs per pen (40 ppm feed from 22-Sep, pen 51, 21-Oct): 0 | # Eggs per pen (40 ppm feed from 22-Sep, pen 51, 21-Sep): 16
